Measured values taken from ChEMBL document CHEMBL1145136, “Molecular determinants of steroid inhibition for the mouse constitutive androstane receptor” (J Med Chem, 2003).

What was measured:
[1] = target: T1, mouse constitutive androstane receptor (mCAR, NR1I3) (Mus musculus, UniProt O35627); experiment: Inhibition of mouse constitutive androstane receptor (mCAR) activity at 10 uM was determined as percent remaining activity; conditions: read-out: Remaining activity
T1 sequence (O35627 whole entry): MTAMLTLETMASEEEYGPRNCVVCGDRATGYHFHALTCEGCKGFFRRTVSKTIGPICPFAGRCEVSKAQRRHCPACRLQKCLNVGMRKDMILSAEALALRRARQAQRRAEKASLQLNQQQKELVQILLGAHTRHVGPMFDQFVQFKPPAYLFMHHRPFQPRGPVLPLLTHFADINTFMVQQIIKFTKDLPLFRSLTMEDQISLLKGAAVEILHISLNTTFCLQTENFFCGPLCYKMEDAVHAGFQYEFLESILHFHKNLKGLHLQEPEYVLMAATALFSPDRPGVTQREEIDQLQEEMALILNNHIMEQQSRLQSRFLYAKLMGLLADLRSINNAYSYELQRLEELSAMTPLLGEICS

[2] = target: T2, Nuclear receptor subfamily 1 group I member 3 (Mus musculus, UniProt O35627); experiment: Inhibitory concentration against mouse constitutive androstane receptor (mCAR) activity was determined as pIC50
T2 sequence (O35627 whole entry): T1 sequence (O35627 whole entry)

[3] = target: T2, Nuclear receptor subfamily 1 group I member 3; experiment: Inhibitory concentration against mammalian m-constitutive androstane receptor (mCAR) activity

SMILES	activity at 10 µM [1]	IC50 [2]	IC50 [3]
CC12CCC3C(CCC4=CC(=O)[C@H](O)CC43C)C1CCC2=O (stereo partly specified)	41%	–	–
CC12C=CCC1C1CCC3=CC(=O)CCC3(C)C1CC2 (stereo unspecified)	7%	0.794 µM	–
CC12CCC3C(C1CCC2=O)[C@H](O)CC1=CC(=O)CCC13C (stereo partly specified)	97%	–	–
CC12CCC3C(CC[C@H]4CC=CCC34C)C1CCC2=O (stereo partly specified)	42%	–	–
CC12C=CCC1C1CC[C@H]3C[C@H](O)CCC3(C)C1CC2 (stereo partly specified)	4%	–	–
CC12C=CCC1C1CC[C@H]3CC(=O)CCC3(C)C1CC2 (stereo partly specified)	5%	–	–
CC12CCC3C(C[C@@H](O)C4=CC(=O)CCC43C)C1CCC2=O (stereo partly specified)	89%	–	–
CC12CCC3C(CCC4=C[C@H](O)CCC43C)C1CCC2=O (stereo partly specified)	66%	–	–
CC12CCC(=O)C=C1CCC1C2CCC2(C)C1CC[C@@H]2C(=O)O (stereo partly specified)	81%	39.8 µM	–
CC12CCC3C(CCC4=CC(=O)CCC43C)C1C[C@@H](O)C2=O (stereo partly specified)	62%	–	–
C[C@]12CCC(=O)C=C1CC[C@@H]1[C@@H]2[C@@H](O)C[C@]2(C)C(=O)CC[C@@H]12	83%	–	–
C[C@@]12CCC[C@H]1[C@@H]1CC[C@H]3C[C@H](O)CC[C@]3(C)[C@H]1CC2	4%	–	–
C[C@@]12CCC[C@H]1[C@@H]1CC[C@@H]3C[C@H](O)CC[C@]3(C)[C@H]1CC2	4%	–	–
C[C@@]12CCC[C@H]1[C@@H]1CCc3cc(O)ccc3[C@H]1CC2	56%	–	–
CC12CC[C@H]3[C@@H](CC[C@H]4CC(=O)CCC43C)[C@@H]1CCC2=O (stereo partly specified)	34%	5.01 µM	–
CC12CC[C@@H]3C4CC[C@@H](O)C[C@@H]4CC[C@H]3[C@@H]1CCC2=O (stereo partly specified)	91%	–	–
CC12CC[C@@H]3C4CCC(=O)C[C@@H]4CC[C@H]3[C@@H]1CCC2=O (stereo partly specified)	80%	–	–
CC12CC[C@H]3[C@@H](CC[C@@H]4CCCCC43C)[C@@H]1CCC2=O (stereo partly specified)	45%	–	–
CCC1CC[C@H]2[C@@H]3CC[C@H]4CC(=O)CCC4(C)[C@H]3CCC12C (stereo partly specified)	52%	–	–
CC12CCC(=O)C[C@@H]1CC[C@@H]1[C@@H]2CCC2(C)[C@@H](O)CC[C@@H]12 (stereo partly specified)	53%	–	–
CC12CCC[C@H]1[C@@H]1CC[C@H]3CC(=O)CCC3(C)[C@H]1CC2 (stereo partly specified)	12%	–	–

SMILES	activity at 10 µM [1]	IC50 [2]	IC50 [3]
CC12CC[C@@H](O)C[C@@H]1CC[C@@H]1[C@@H]2CCC2(C)[C@@H](O)CC[C@@H]12 (stereo partly specified)	63%	–	–
CC12CCC3C(CC[C@H]4CC(=O)C=CC34C)C1CCC2=O (stereo partly specified)	90%	–	–
CC12CCC3C(C[C@H](O)C4=CC(=O)CCC43C)C1CCC2=O (stereo partly specified)	81%	–	–
CC12C=CCC1C1CC[C@H]3C[C@@H](O)CCC3(C)C1CC2 (stereo partly specified)	28%	–	–
CC(=O)[C@H]1CC[C@H]2[C@@H]3CC[C@H]4CC(=O)CC[C@]4(C)[C@H]3CC[C@]12C	73%	–	–
CC(=O)[C@H]1CC[C@H]2[C@@H]3CC[C@@H]4CC(=O)CC[C@]4(C)[C@H]3CC[C@]12C	20%	–	–
C[C@]12CCC(=O)C=C1CCC1[C@@H]2C(=O)C[C@@]2(C)[C@H]1CC[C@]2(O)C(=O)CO (single isomer, unassigned) [CORTISONE]	80%	–	–
C[C@]12CCC(=O)C=C1CCC1[C@@H]2[C@@H](O)C[C@@]2(C)[C@H]1CC[C@]2(O)C(=O)CO (single isomer, unassigned) [HYDROCORTISONE]	68%	–	–
C[C@]12CCC(=O)C=C1CC[C@@H]1[C@@H]2CC[C@]2(C)C(=O)CC[C@@H]12 [ANDROSTENEDIONE]	56%	–	–
C[C@]12C=CC(=O)C=C1CC[C@@H]1[C@@H]2CC[C@]2(C)C(=O)CC[C@@H]12 [ANDROSTENEDONE]	89%	–	–
C[C@]12CC[C@@H](O)C[C@@H]1CC[C@@H]1[C@@H]2CC[C@]2(C)C=CC[C@@H]12 [ANDROSTENOL]	–	–	0.25 µM
CC(=O)[C@H]1CC[C@H]2[C@@H]3CC[C@H]4C[C@H](O)CC[C@]4(C)[C@H]3CC[C@]12C [BREXANOLONE]	19%	–	–
C[C@]12C[C@H](O)[C@H]3[C@@H](CCC4=CC(=O)CC[C@@]43C)[C@@H]1CC[C@@H]2C(=O)CO [CORTICOSTERONE]	80%	–	–
C[C@]12CC[C@H]3[C@@H](CCC4=CC(=O)CC[C@@]43C)[C@@H]1CC[C@@H]2C(=O)CO [DESOXYCORTICOSTERONE]	58%	–	–
C[C@@H]1C[C@H]2[C@@H]3CCC4=CC(=O)C=C[C@]4(C)[C@@]3(F)[C@@H](O)C[C@]2(C)[C@@]1(O)C(=O)CO [DEXAMETHASONE]	75%	–	–
C[C@]12CC[C@H]3[C@@H](CCC4=CC(=O)CC[C@@]43C)[C@@H]1CC[C@H]2O [EPITESTOSTERONE]	73%	–	–
C[C@]12CCC(=O)C(O)=C1CC[C@@H]1[C@@H]2CC[C@]2(C)C(=O)CC[C@@H]12 [FORMESTANE]	53%	–	–
C[C@]12CC[C@H](O)CC1=CC[C@@H]1[C@@H]2CC[C@]2(C)C(=O)CC[C@@H]12 [PRASTERONE]	71%	–	–
CC(=O)[C@H]1CC[C@H]2[C@@H]3CC=C4C[C@@H](O)CC[C@]4(C)[C@H]3CC[C@]12C [PREGNENOLONE]	95%	–	–
C[C@]12CCC(=O)C[C@@H]1CC[C@@H]1[C@@H]2CC[C@]2(C)[C@@H](O)CC[C@@H]12 [STANOLONE]	69%	–	–
C[C@]12CC[C@H]3[C@@H](CCC4=CC(=O)CC[C@@]43C)[C@@H]1CC[C@@H]2O [TESTOSTERONE]	78%	–	30 µM
